{"source": "patent US11047848B2", "about": "“Cellular discovery platform for neurodegenerative diseases” (Whitehead Institute for Biomedical Research, priority 2013, dated 2021)", "tested_on": "primary cortical cultures", "test": "Optimization of the NO sensor FL2 in rat primary cortical cultures", "format": "cell-based", "settings": "500 μM DETA-NONOate for 30 min, DIV 14-21; FIG. 20", "procedure": "FIG. 20. Optimization of the NO sensor, FL2, using an NO donor, DETA-NONOate. FL2 dye was loaded after exposing primary cortical cultures (DIV 14-21) to 500 μM DETA-NONOate for 30 min. […] Control cultures exposed to dye without an NO donor are shown in the upper panel. A single representative experiment is shown.\nEmbryos were harvested by cesarean section from anesthetized pregnant Sprague-Dawley rats at embryonic day 18. Cerebral cortices were isolated and dissociated with Accumax (Innovative Cell Technologies, Inc) digestion for 20 min at 37° C. and triutration with Pasteur pipette. Poly-ornithine and lamine-coated 96 well plates or 8 well-chambered coverglass (Lab-Tek; 70378-81) were seeded with 4×10^4 or 8×10^4 cells respectively in neurobasal medium (Life Technologies) supplemented with B27 (Life Technologies), 0.5 mM glutamine, 25 μM β-mercaptoethanol, penicillin (100 IU/ml) and streptomycin (100 μg/ml). One third of the medium was changed every 3 to 4 days. As a surrogate marker of cell viability, cellular ATP content was measured using the ViaLight Plus kit (Lonza).\nThe FL2 sensor used in this study was a non-acidified and non-esterified version of the FL2-related sensors that have been previously published^23,24,53,55. A working 1 mM solution of FL2 (batch SJL #1768) in DMSO (Sigma 276855) was stable for at least 3 months at −20° C. […]", "data": [{"compound": "NCCN(CCN)/[N+]([O-])=N/O", "note": "[DETA-NONOate]", "values": [{"measurement": "FL2 response (NO signal)", "result": "robust FL2 response"}]}]}
